Laboratory results from patent US20260248805A1, “DIAMINOPHENOTHIAZINE FOR THE TREATMENT OF MICROVASCULAR BRAIN DISEASE” (priority 2023, published 2026).
Entries after “also recorded” stand apart in the source; their conditions may differ.

Columns and labels:
tau aggregation = tau aggregation (Homo sapiens, UniProt P10636); details: in vitro (LMTM: in vitro and in vivo); cited from earlier work
[1] = cited from earlier work
[2] = system: white matter hyperintensities (microvascular pathology); test: Phase 3 clinical trials of LMTM in AD: MRI total lesion volume (TLV) of white matter hyperintensities; assay type: in vivo, human; details: for estimate: difference in increase in TLV, LMTM monotherapy vs LMTM in combination with AD symptomatic treatments: FIGS. 7A and B, no unit printed at the table; for estimate: difference in increase in Total Lesion volume (TLV), LMTM monotherapy vs LMTM in combination with symptomatic treatments for AD: AD patients, MRI; for exposure dependence of rate of progression of microvascular pathology: low dose monotherapy, FIG. 6, TLV change from baseline
Excerpt: The design and results from two large Phase 3, double-blind, controlled, randomised clinical trials of hydromethylthionine in probable AD were described elsewhere. Study TRx-237-015 (clintrials.gov NCT01689246), involved 890 mild/moderate AD patients and study TRx-237-005 (clintrials.gov NCT01689233), had 800 patients with mild AD meeting NIA/AA diagnostic criteria for probable AD. Eligible patients were aged less than 90 years. Patients were excluded if they had: a recent history of poorly controlled hypertension, or clinically significant cardiovascular disease (such as hospitalization for acute coronary syndrome or symptoms consistent with angina pectoris), or a modified Hachinski ischemic score of >4. Patients were also excluded if significant vascular pathology was seen on brain MRI, including large confluent white matter hyperintensities that would lead to a diagnosis other than probable AD. A detailed list of all inclusion and exclusion criteria for both trials is available in the supplementary materials. FDG-PET was performed at baseline in only a subgroup of TRx-237-015 subjects (n=198) but was required for all participants in TRx-237-005 if the appropriate imaging facilities were available at the study site. Of 1690 participants enrolled in both studies, 794 had available FDG-PET scans at baseline.
In this trial only GE, Siemens, or Philips (1.5-Tesla and 3.0-Tesla) machines were used to reduce the variability in the imaging data. The MRI sequences utilised in this protocol were based on the ADNI protocol. The recommended range of acquisition parameters for individual sequences for GE, Siemens, and Philips MRI machines were developed after technical evaluation forms from all sites. The following sequences were included: FLAIR: This sequence allows assessment of other clinically significant focal intracranial pathology and for detection and quantification of WMHs; Unenhanced T1-weighted, 3-dimensional sequence (e.g., MP RAGE or SPGR) were used for evaluation of the whole brain, ventricular and hippocampal volumes and WMH.
Brain MRI derived WMHs were quantified using the Lesion Growth Algorithm (LGA) part of the Lesion Segmentation Toolbox (LST [28]) which is an automated method for extracting WMH and has been validated in various datasets. This algorithm uses T1 and FLAIR MR images to classify voxels, with T1 images used to segment tissue classes white matter (WM), grey matter (GM), cerebrospinal fluid (CSF) and fluid attenuated inversion recovery (FLAIR) imaging used to determine areas of hyperintense signal (i.e., WMH). WMH data are provided as whole-brain total lesion volume (TLV), measured in cm^3.
Exposure dependence groups were defined in accordance with the methods described in more detail in WO2020/020751 discussed hereinbefore.

Alzheimer's disease = details: monotherapy vs combination with AChEIs and/or memantine; cited from earlier work
[3] = compared with the MT+ form; cited from earlier work
[4] = system: PHFs from Alzheimer's disease brain tissue; details: cited from earlier work
tau pathology = details: transgenic mouse tau models; brain concentrations consistent with human oral dosing; cited from earlier work

Chain of tau aggregation (P10636 whole entry): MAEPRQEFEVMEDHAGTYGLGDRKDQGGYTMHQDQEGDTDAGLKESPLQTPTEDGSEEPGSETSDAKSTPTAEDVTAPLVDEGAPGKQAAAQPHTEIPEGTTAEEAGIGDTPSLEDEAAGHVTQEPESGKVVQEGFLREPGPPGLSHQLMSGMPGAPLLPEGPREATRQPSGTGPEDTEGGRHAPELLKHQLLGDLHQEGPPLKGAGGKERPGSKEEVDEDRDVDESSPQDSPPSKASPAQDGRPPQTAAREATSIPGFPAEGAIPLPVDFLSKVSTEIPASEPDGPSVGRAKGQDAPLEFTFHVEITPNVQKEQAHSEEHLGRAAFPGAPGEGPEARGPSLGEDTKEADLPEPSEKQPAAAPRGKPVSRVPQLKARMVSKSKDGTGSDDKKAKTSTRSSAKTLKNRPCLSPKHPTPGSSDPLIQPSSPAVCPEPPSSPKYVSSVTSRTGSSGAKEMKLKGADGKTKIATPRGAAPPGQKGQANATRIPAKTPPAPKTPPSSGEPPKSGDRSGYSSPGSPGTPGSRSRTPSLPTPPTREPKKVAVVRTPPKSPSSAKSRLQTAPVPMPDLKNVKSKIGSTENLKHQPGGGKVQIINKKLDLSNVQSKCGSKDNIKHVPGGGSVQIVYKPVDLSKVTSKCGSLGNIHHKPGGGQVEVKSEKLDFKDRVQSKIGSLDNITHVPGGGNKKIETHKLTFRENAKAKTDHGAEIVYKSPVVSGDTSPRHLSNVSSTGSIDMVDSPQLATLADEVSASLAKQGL

| Structure (SMILES) | tau aggregation inhibitor activity (tau aggregation) | pharmaceutic properties: solubility and pKa [1] | estimate: difference in increase in TLV, LMTM monotherapy vs LMTM in combination with AD symptomatic treatments ([2]; 4 mg b.i.d. (low dose group)) | estimate: difference in increase in Total Lesion volume (TLV), LMTM monotherapy vs LMTM in combination with symptomatic treatments for AD ([2]; 4 mg b.i.d. (low dose)) [mL] | estimate: difference in increase in Total Lesion volume (TLV), LMTM monotherapy vs LMTM in combination with symptomatic treatments for AD ([2]; 100 mg b.i.d. (high dose)) [mL] | estimate: difference in increase in TLV, LMTM monotherapy vs LMTM in combination with AD symptomatic treatments ([2]; 100 mg b.i.d., high dose (mean of high doses, 150-250 mg/day)) | increase in Total Lesion volume, monotherapy vs combination with symptomatic treatments for AD ([2]; high dose and low dose groups, statistically significant difference) | exposure dependence of rate of progression of microvascular pathology [2] | treatment benefit in AD according to the trial criteria (Alzheimer's disease) | absorption [3] | dissolution of PHFs [4] | tau pathology and behavioural deficits (tau pathology) |
| --- | --- | --- | --- | --- | --- | --- | --- | --- | --- | --- | --- | --- |
| CN(C)c1ccc2c(c1)Sc1cc(N(C)C)ccc1N2.CS(=O)(=O)O.CS(=O)(=O)O [LMTM, N,N,N′,N′-tetramethyl-10H-phenothiazine-3,7-diaminium bis(hydromethanesulfonate)] | retains TAI activity in vitro and in vivo | superior pharmaceutic properties in terms of solubility and pKa | −0.3494 | -0.3494 | -0.3865 | −0.3865 | less increase in Total Lesion volume; also recorded: less increase in TLV | exposure-dependent difference in rate of progression of microvascular pathology | restricted to patients taking LMTM as monotherapy | not subject to the absorption limitations of the MT^+ form | – | – |
| CN(C)c1ccc2nc3ccc(=[N+](C)C)cc-3sc2c1 [MT, Methylthioninium] | acts as a tau aggregation inhibitor in vitro | – | – | – | – | – | – | – | – | – | dissolves PHFs from Alzheimer's disease brain tissue | reduces tau pathology and associated behavioural deficits |
| CN(C)c1ccc2c(c1)Sc1cc(N(C)C)ccc1N2 [LMT, N3,N3,N7,N7-tetramethyl-10H-phenothiazine-3,7-diamine] | – | – | – | – | – | – | – | exposure-dependent reduction in progression of microvascular pathology | – | – | – | – |
